Test: gradient 5% acetonitrile 3 min, to 50% in 2 min, to 85% in 15 min, held 3 min, 100 µL/min
Details: column: Zorbax Extend-C18 2.1 x 50 mm; eluents: water / acetonitrile, 0.1% formic acid
Method in brief: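 The system's dead and dwell volumes were 40 μL and 900 μL, with a Zorbax Extend-C18 column (2.1 × 50 mm, 1.8 μm) run at 100 μL/min in water and acetonitrile containing 0.1% formic acid each. Pure standards were analyzed in mixtures of ~100 molecules by HPLC–quadrupole time-of-flight mass spectrometry in positive and negative ionization mode. Retention time was assigned from computationally picked, manually inspected adduct peaks.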

| RP-LC retention time [s] | SMILES |
| --- | --- |
| 736 | CCc1noc(NC(C)=O)c1-c1ccc(C)c(S(=O)(=O)Nc2ccc(C(=O)OC)cc2)c1 |
| 1120 | CCn1c(C(=O)NCc2ccc3c(c2)OCO3)cc2c(-c3cccs3)nn(-c3ccccc3)c21 |
| 954 | CCn1cc(-c2nc(CC(=O)N3CCc4ccccc43)cs2)c2cccnc21 |
| 962 | COc1ccc(-c2ccc(=O)n(Cc3nc(-c4ccccc4Cl)no3)n2)cc1 |
| 956 | Cc1cccc(-n2c(N3CCCC(C(=O)NCc4ccccc4Cl)C3)nc3ccsc3c2=O)c1 (stereo unspecified) |
| 842 | CC(C)c1ccc(CNc2nc3ccncc3n(Cc3ccccc3)c2=O)cc1 |
| 905 | N#CCc1ccc(NC(=O)C2CCCN(S(=O)(=O)Cc3ccc(Cl)cc3)C2)cc1 (stereo unspecified) |
| 1060 | Cc1nc(-c2cn(C)c3ncccc23)sc1C(=O)Nc1ccc(Cl)cc1 |
| 744 | COc1ccc(S(=O)(=O)N2CCCC(c3nnnn3C)C2)cc1 (stereo unspecified) |
| 1060 | Cc1c(-c2noc(-c3ccc(F)cc3)n2)nnn1Cc1ccc(F)cc1 |
| 653 | CC(=O)Nc1ccc(S(=O)(=O)N2CCN(S(=O)(=O)N(C)C)CC2)cc1 |
| 1060 | Cc1cccc(-c2noc(Cn3c(=O)n(Cc4ccccc4)c(=O)c4sccc43)n2)c1 |
| 596 | Cc1cccc(-c2ncccc2CNC(=O)c2ccco2)c1 |
| 1020 | Cc1nn(-c2ccccc2)c(C)c1S(=O)(=O)N1CCC(C(=O)N2CCc3ccccc32)CC1 |
| 766 | O=C(Cn1c(=O)c2cc(C3CC3)nn2c2ncccc21)NCc1ccccc1Cl |
| 799 | Cc1c(C)n(-c2ccccc2)c2ncn(CC(=O)NC3CCCC3)c(=O)c12 |
| 820 | O=C(CSc1nc(=O)n2cc(Cl)ccc2n1)Nc1ccc(OC(F)(F)F)cc1 |
| 579 | CN1C(=O)CCc2cc(NC(=O)c3ccncc3)ccc21 |
| 825 | Cc1ccc(S(=O)(=O)n2c(N)nc3ccccc32)cc1 |
| 967 | CCN1C(=O)c2ccccc2Oc2ccc(C(=O)NC3CCCCC3)cc21 |

| RP-LC retention time [s] | SMILES |
| --- | --- |
| 784 | CCc1nc2nccc(-c3ccc(OC)cc3)n2n1 |
| 942 | Cc1nc(-c2cn(C)c3ncccc23)sc1C(=O)NCc1ccccc1Cl |
| 1280 | CCc1nc2cc(-c3noc(COc4cccc(C)c4)n3)ccc2o1 |
| 712 | COc1ccc(-c2cc(N3CCC(NC(=O)c4ccccc4OC)C3)n[nH]2)cc1 (stereo unspecified) |
| 587 | CCN1C(=O)C2(CCN(S(=O)(=O)c3ccc(CC(C)C)cc3)CC2)c2ccccc21 |
| 816 | O=C(c1ccccc1)N1CCCc2cc(NS(=O)(=O)c3ccccc3Cl)ccc21 |
| 904 | O=C(Cn1c(=O)c2cccn2c2ccccc21)Nc1cccc(Cl)c1 |
| 843 | Cc1ccc(N2C(=O)CSC2c2ccccc2)cc1 (stereo unspecified) |
| 860 | CCOc1ccccc1NC(=O)N1CCCC(C)(C(=O)NCc2ccccc2C)C1 (stereo unspecified) |
| 1310 | CCCN(C(=O)c1cccc(F)c1)c1nc(-c2ccccc2)cs1 |
| 875 | CCN(CC)S(=O)(=O)c1ccc(NC(=O)c2ccc3c(=O)n4c(nc3c2)CCCCC4)cc1 |
| 780 | CC(=O)c1ccc(NC(=O)CN2C(=O)CC(c3ccccc3)=Nc3cccnc32)cc1 |
| 1060 | Cc1ccc(C)c(-c2coc(-c3ccc(N)cc3)n2)c1 |
| 870 | CC1=C(c2ccccc2)S(=O)(=O)N=C1N1CCCN(C(=O)c2cc(C)ccc2C)CC1 |
| 610 | O=C(NCc1ccc(-n2ccnc2)cc1)c1ccccc1C(F)(F)F |
| 752 | Cc1noc(C)c1S(=O)(=O)N1CCCN(S(=O)(=O)c2ccccc2)CCC(=O)NCC1 |
| 842 | COc1ccc(NC(=O)N2CCCC2c2nc(-c3cccc(F)c3)no2)cc1 (stereo unspecified) |
| 940 | CC(C)Cn1cc(CCNC(=O)c2ccc(C(F)(F)F)cc2)c2cccnc21 |
| 952 | CCN1C(=O)COc2ccc(-c3csc(NC(=O)c4ccccc4)n3)cc21 |
| 994 | Cc1ccc(NC(=O)CN2C(=O)C3CCCCN3c3ccc(S(=O)(=O)N(C)C)cc32)c(C)c1 (stereo unspecified) |

The next lines start with the compound.

| SMILES | RP-LC retention time [s] |
| --- | --- |
| N#CC(C#N)=Cc1ccc(O)c(O)c1 | 841 |
| O=C(Nc1ccccc1Cl)N(Cc1ccsc1)Cc1ccccn1 | 806 |
| CCCCCNC(=O)C1CCN(S(C)(=O)=O)c2cc(Cl)ccc2O1 (stereo unspecified) | 920 |
| CCc1cc(C(=O)N2CCN(C(C)C)CC2)nc2cc(-c3ccccn3)nn12 | 650 |
| O=C(Cc1csc(-c2ccccc2F)n1)NCCc1c[nH]c2ccccc12 | 904 |
| O=C(CC1c2ncccc2C(=O)N1c1ccccc1)N1CCN(c2ccccn2)CC1 (stereo unspecified) | 683 |
| O=C(NCc1ccccc1C(F)(F)F)C1CCN(c2cnc3nccnc3c2)CC1 | 747 |
| O=C(CCn1nnc2cc(-c3noc(COc4ccc(F)cc4)n3)ccc21)N1CCCCCC1 | 990 |
| CC(=O)c1ccc(NC(=O)Cn2nc3c4cc(-c5ccc(C(C)C)cc5)nn4ccn3c2=O)cc1 | 1020 |
| CC(C)NC(=O)c1ccc(OCC2CCN(C(=O)c3cc(F)ccc3Cl)CC2)cc1 | 891 |
| CC(C)c1ccc(N2C(=O)C3N=NN(Cc4nc(-c5ccc6c(c5)OCO6)no4)C3C2=O)cc1 (stereo unspecified) | 1060 |
| COc1ccc2c(c1)C(C)CC(C)(C)N2C(=O)CSc1ncccn1 (stereo unspecified) | 994 |
| CC1(C)CC(=O)C2=C(C1)Nc1ccccc1N(CC(=O)NCC1CCCO1)C2c1cccs1 (stereo unspecified) | 754 |
| CCCCC1CCC(C(=O)Nc2nc(-c3ccc4c(c3)NC(=O)CO4)c(C)s2)CC1 (stereo unspecified) | 1240 |
| CCc1ccc(C(C)NC(=O)C2CCN(c3nnc(-c4ccc(OC)cc4)o3)CC2)cc1 (stereo unspecified) | 943 |
| Cc1ccc(-n2nc(N3CCCC(C(=O)NC4CCCCCCC4)C3)ccc2=O)cc1Cl (stereo unspecified) | 1110 |
| COc1ccc(S(=O)(=O)N2CCN(c3cc(C)nc(N4CCOCC4)n3)CC2)cc1Cl | 692 |
| COc1ccc(CNC(=O)C2CCN(c3ccc(SCc4ccccc4)nn3)CC2)cc1OC | 704 |
| COc1ccc(C2(C(=O)N3CC(c4nc(CCOCC5CCOCC5)no4)C3)CC2)cc1 | 812 |
| O=C(CCn1nnc2cc(-c3noc(Cc4ccc(Cl)cc4)n3)ccc21)N1CCOCC1 | 878 |
| O=C(Cc1ccccc1)N1[C@H]2CC[C@@H]1c1cnc(-c3ccccc3)nc1C2 | 898 |
| O=C(NCCN1CCc2ccccc2C1)c1cccc2c1CCN2C(=O)C1CC1 | 640 |
| O=C(c1ccco1)N1CCN(C(=O)c2nc(-c3ccc(Cl)cc3)n3c2CCCCC3)CC1 | 741 |

| SMILES | RP-LC retention time [s] |
| --- | --- |
| COc1ccc(Cl)cc1NS(=O)(=O)c1cc(-c2cc(C(F)(F)F)[nH]n2)sc1C | 1060 |
| Cc1cccc(NC(=O)Cn2ncc3c(N4CCN(c5ccccn5)CC4)ncnc32)c1C | 609 |
| CCn1c(=O)c2ccnn2c2ccc(C(=O)NC3CCCC3)cc21 | 587 |
| CC1CCC2(CC1)NC(=O)N(CC(=O)NCc1ccccc1)C2=O (stereo unspecified) | 784 |
| CCCCN(C)C(=O)CN1C(=O)CCCc2cc(S(=O)(=O)N3CCC(C)CC3)ccc21 | 971 |
| COc1cc(C(=O)Nc2nc3c(C)cc(Cl)cc3s2)cc(OC)c1OC | 1120 |
| O=C(Nc1ccc(F)cc1)N1C[C@H]2C[C@H](C1)[C@H]1CCCC(=O)N1C2 | 640 |
| COc1ccc(OC)c(CNC(=O)C2CCCN(c3ccc(=O)n(-c4ccc(F)cc4)n3)C2)c1 (stereo unspecified) | 812 |
| COCCNC(=O)C(=O)Nc1ccc(Br)cc1F | 839 |
| COc1ccc(-c2cn3c(CC(=O)N4CCN(c5ccc(Cl)cc5)CC4)csc3n2)cc1OC | 816 |
| Nc1cc(C2CCN(C(=O)Nc3ccccc3Cl)CC2)no1 | 698 |
| COc1ccc(-c2nc3cnccn3c2Nc2ccc(C(=O)NCC3CCCO3)cc2)cc1 (stereo unspecified) | 649 |
| COc1ccc2c(c1)C1(CCN(C(=O)c3ccccc3Br)C1)C(=O)N2 (stereo unspecified) | 750 |
| CCN(CC)CCNC(=O)c1sc2ncn(Cc3ccccc3F)c(=O)c2c1C | 638 |
| Cc1ccccc1N1CCN(c2ncnc3scc(-c4cccs4)c23)CC1 | 992 |
| CCCCC(=O)N1CCCN(C2=NS(=O)(=O)C(c3ccccc3)=C2C)CC1 | 793 |
| CCc1nc(N)n(CC(=O)Nc2ccc(F)cc2C)c(=O)c1C | 626 |
| CCC(C)n1[nH]c(=O)c2c1NC(=O)CSC2c1ccc(OC)c(OC)c1 (stereo unspecified) | 654 |
| COC(=O)C1=C(C)NC(C)=C(C(=O)OC)C1c1cccc(NC(=O)NCCCN2CCC(c3cccc(OC)c3)CC2)c1 | 833 |
| CC(C)c1cc(C(=O)Nc2cccc(C#N)c2)nc2ccnn12 | 1030 |
| CCOC(=O)c1cc(S(=O)(=O)N2CCCC2C(=O)N2CCCCC2)cn1C (stereo unspecified) | 767 |
| CCc1nncn1C1CCN(C(=O)Nc2ccc(F)c(Cl)c2)C1 (stereo unspecified) | 661 |
| COc1ccc(-c2noc(CN3N=NC4C(=O)N(c5ccc(F)c(F)c5)C(=O)C43)n2)cc1 (stereo unspecified) | 1130 |

— the METLIN SMRT retention time set (Domingo-Almenara et al. 2019)
